The conditions of data set [1]: DSC. On the technique in general: Differential scanning calorimetry records heat flow against a reference as temperature is scanned.
The nature of data set [2]: Molar enthalpy of transition or fusion. As to conditions: DSC.

± gives the expanded uncertainty stated by the source.

Regarding `CCCCCCCCCCCCCCCCCCCCC` [heneicosane], the Triple point temperature in data set [1] (Crystal 1) was 313.65 ± 1 K; in data set [1] (Crystal 2) it was 305.05 ± 1 K. Further, the “Molar enthalpy of transition or fusion” value was 9.93 ± 1 kcal/mol in data set [2] (Crystal 1) and 3.42 ± 0.359 kcal/mol in data set [2] (Crystal 2).

Values taken from the NIST ThermoML archive (doi:10.1016/j.tca.2018.04.001).
